# Laboratory results from US4044043A, “Derivatives of 9-oxo-13-trans-prostenoic acid esters” (American Cyanamid Company, priority 1975, dated 1977).
# Read-outs that look alike come from different tables or passages of the source.
# Columns and labels:
# diastolic blood pressure = test: Prostaglandin-like hypotensive activity in anesthetized rats (minimal dose for about 10 mm. decrease in diastolic blood pressure); type: in vivo, Male Wistar strain rats; conditions: Rattus norvegicus; intravenous; decrease of about 10 mm. in diastolic blood pressure
# In short: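 Male Wistar rats (~250 g), pentobarbital 30 mg./kg. i.v. and hexamethonium 2 mg./kg. i.v., iliac artery cannulated for blood pressure. Compounds in saline-Tween 80 given i.v. at 0.1–10.0 mg./kg.; value is the minimal dose giving ~10 mm. drop in diastolic pressure.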
# [1] = tested on: Trichophyton mentagrophytes E 11; test: agar-dilution streak-plate antimicrobial assay; type: cell-based; conditions: E11, read-out: Minimal inhibitory conc. (4)
# In short: (§1)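 Test solutions at 2.5 mg/ml serially diluted two-fold, then 1 ml mixed into 9 ml nutrient agar suited to bacteria or fungi. Plates streaked with overnight broth cultures or saline spore suspensions, then incubated. MIC (μg/ml) is the concentration giving complete growth inhibition by visual inspection.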
# Trichophyton rubrum E 97 = test: agar-dilution streak-plate antimicrobial assay; type: cell-based; conditions: E97, read-out: Minimal inhibitory conc. (5)
# In short: as §1
# [2] = tested on: Mycobacterium smegmatis ATCC 606; test: agar-dilution streak-plate antimicrobial assay; type: cell-based; conditions: Mycolicibacterium smegmatis, ATCC606, read-out: Minimal inhibitory conc. (6)
# In short: as §1
# [3] = tested on: Trichophyton tonsurans NIH 662; test: agar-dilution streak-plate antimicrobial assay; type: cell-based; conditions: NIH662, read-out: Minimal inhibitory conc. (3)
# In short: as §1
# [4] = tested on: bronchospasms elicited by histamine; test: Bronchodilator Activity (Konzett Assay) against histamine; type: in vivo, guinea pigs; conditions: Cavia porcellus; three logarithmic cumulative intravenous doses
# Description: (§2) Bronchodilator activity was determined in guinea pigs against bronchospasms elicited by intravenous injections of 5-hydroxytryptamine, histamine or acetylcholine by the Konzett procedure. [See J. Lulling, P. Lievens, F. El Sayed and J. Prignot, Arzeneimittel-Forschung, 18, 995 (1968)]. In Table IIIC which follows bronchodilator activity for representative compounds of this invention against one or more of the three spasmogenic agents is expressed as an ED50 determined from the results obtained with three logarithmic cumulative intravenous doses.
# [5] = tested on: dl-PGE1-induced contraction of gerbil colon; test: Inhibition of dl-PGE1-Induced Contraction of Gerbil Colon (prostaglandin antagonist action); type: cell-based, gerbils (Meriones unguiculatus); conditions: Meriones unguiculatus, 1 min; sub-maximal challenge, 20 ng./ml. dl-PGE1; 50% inhibition of maximum response; read-out: ID50 vs. 20 ng. of PGE1/ml.
# In short: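 Ascending colon from male gerbils, held in De Jalon's solution at 37 °C under 95% O2/5% CO2 with 0.5 g resting tension, contraction recorded isometrically. 1 min compound exposure, then 1 min dl-PGE1 at 200 ng/ml (maximal) or 20 ng/ml (sub-maximal). Approximate ID50 taken from a concentration series against the preceding agonist-only cycle.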
# [6] = tested on: bronchospasms elicited by acetylcholine; test: Bronchodilator Activity (Konzett Assay) against acetylcholine; type: in vivo, guinea pigs; conditions: Cavia porcellus; three logarithmic cumulative intravenous doses
# Description: as §2
# [7] = tested on: Microsporum gypseum ATCC 14683; test: agar-dilution streak-plate antimicrobial assay; type: cell-based; conditions: Nannizzia gypsea, ATCC14683, read-out: Minimal inhibitory conc. (2)
# In short: as §1
# [8] = tested on: bronchospasms elicited by 5-hydroxytryptamine; test: Bronchodilator Activity (Konzett Assay) against 5-hydroxytryptamine; type: in vivo, guinea pigs; conditions: Cavia porcellus; three logarithmic cumulative intravenous doses
# Description: as §2
# gastric acid secretion [9] = test: Inhibition of Gastric Acid Secretion (Pylorous-Ligated Rat), Shay rat procedure; type: in vivo, rats (male, CFE strain); conditions: read-out: % Inhibition of Control Gastric Acid Secretion; for inhibition in vivo at 50 mg/kg: 50 mg./kg. intraduodenal
# In short: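 Male CFE rats were fasted 48 h, then pylorus-ligated under ether. Gastric contents were titrated with 0.02N or 0.04N NaOH to pH 8.4 for acid output, and ≥20% inhibition counted as active.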
# [10] = tested on: Microsporum canis ATCC 10214; test: agar-dilution streak-plate antimicrobial assay; type: cell-based; conditions: ATCC10214, read-out: Minimal inhibitory conc. (1)
# In short: as §1
# [11] = tested on: Streptococcus pyogenes C 203; test: agar-dilution streak-plate antimicrobial assay; type: cell-based; conditions: C203, read-out: Minimal inhibitory conc. (8)
# In short: as §1
# gastric acid secretion [12] = test: Inhibition of basal Gastric Acid Secretion (Acute Gastric Fistula Rat); type: in vivo, Female Sprague-Dawley rats; conditions: 10 mg./kg. intraduodenal
# Description: Inhibition of basal gastric acid secretion was determined in the acute gastric fistula rat as follows. Female Sprague-Dawley rats (Charles River Laboratories) weighing 140-160 grams are fasted in individual cages for 18-24 hours. The rats are then lightly anesthetized with ether and their front teeth extracted to avoid destruction of the plastic cannula. A midline incision is then made and the stomach and duodenum exposed. A flanged polyvinyl tube is inserted into the fundic portion of the stomach and secured with a purse string suture line using 4-0 Mersilene. The rat is then dosed by injection of the compound into the duodenum (1.0 ml. per 100 gram body weight). After dosing, the abdominal wall and skin are closed using metal wound clips. The rat is replaced in a cage containing a longitudinal slit to allow the polyvinyl tube to hang freely. An 8 ml. plastic collecting tube is attached to the flanged cannula and hangs freely below the cage. The first 30 minute sample is discarded designating this time as zero. The collecting tube is attached again and samples removed at the end of 60 and 120 minutes. Those samples are referred to as "A" and "B" in the table. The hourly samples are then transferred to a 15 ml. centrifuge tube and centrifuged for 5-10 minutes. Total and sediment volume are then recorded with the supernatant volume being used as volume of secretion. A 1 ml. or less aliquot is then removed and placed in a 50 ml. beaker containing 10 ml. of distilled water. This sample is then titrated using 0.01N NaOH to pH 7.0 using a Beckman zeromatic pH meter. Volume, titratable acidity (meq/L) and total acid output (μ eq/hour) are recorded. Percent inhibition is determined by comparison with the appropriate control. Groups of three rats were used. All compounds are administered in vehicle (0.5% methocel, 0.4% Tween 80, saline) at a constant volume of 1 ml./100 gram rat. Samples were sonicated with care to prevent overheating.
# [13] = 1 h, A: 60 minute collection, read-out: % Inhibition Total Acid Output
# [14] = 1 h, A: 60 minute collection, read-out: % Inhibition Total Acidity
# [15] = 2 h, B: 120 minute collection, read-out: % Inhibition Total Acid Output
# [16] = 2 h, B: 120 minute collection, read-out: % Inhibition Total Acidity
SMILES,minimal effective dose (diastolic blood pressure) [mg/kg],MIC [1] [µg/mL],MIC [2] [µg/mL],MIC [3] [µg/mL],IC50 [5] [µg/mL],MIC [11] [µg/mL],other results
CCOC(=O)CCCCCC[C@H]1C(=O)CC[C@@H]1/C=C/CCC[S+]([O-])CC (stereo partly drawn) [ethyl 9-oxo-18-oxythia-13-trans-prostenoate],2,250,250,250,–,–,MIC (Trichophyton rubrum E 97): 250 µg/mL
CCSCCC/C=C/[C@@H]1CCC(=O)[C@H]1CCCCCCC(=O)O (relative stereo) [9-oxo-18-thia-13-trans-prostenoic acid],0.2,125,250,125,1,–,ED50 [4]: 1.38 mg/kg; ED50 [6]: > 10 mg/kg; MIC [7]: 250 µg/mL; ED50 [8]: 1.99 mg/kg
"CCOC(=O)CCCCCC[C@H]1C(=O)CC[C@@H]1/C=C/CCCCl (relative stereo) [ethyl 20-chloro-9-oxo-17,18,19-trinor-13-trans-prostenoate]",0.2 to 1,250,250,–,–,–,inhibition in vivo at 100 mg/kg (gastric acid secretion [9]; 100 mg./kg. intraduodenal): 61%
"CCOC(=O)CCCCCC[C@H]1C(=O)CC[C@@H]1/C=C/C(C)C (relative stereo) [ethyl 15-methyl-9-oxo-17,18,19,20-tetranor-13-trans-prostenoate]",–,250,62,250,–,–,MIC [10]: 250 µg/mL; MIC (Trichophyton rubrum E 97): 250 µg/mL; MIC [7]: 250 µg/mL
"CCC/C=C/[C@H]1CCC(=O)[C@@H]1CCCCCCC(=O)OCC (relative stereo) [ethyl 9-oxo-18,19,20-trinor-13-trans-prostenoate]",–,250,250,–,–,–,"inhibition in vivo at 100 mg/kg (gastric acid secretion [9]; 100 mg./kg. intraduodenal): 94%; inhibition in vivo at 100 mg/kg (gastric acid secretion [9]; 100 mg./kg., 1 hr. pre-ligation): 73%; inhibition in vivo at 8 mg/kg (gastric acid secretion [9]; sc, 8 mg./kg. subcutaneous): 40%"
"CCCCCC/C=C/[C@H]1CCC(=O)[C@@H]1CC(=O)OCC (relative stereo) [ethyl 9-oxo-3,4,5,6,7-pentanor-13-trans-prostenoate]",8,125,125,250,–,125,–
"CCCCCC/C=C/[C@H]1CCC(=O)[C@@H]1CCCCCC(CC)C(=O)OCC (stereo partly drawn) [ethyl 9-oxo-2-ethyl-13-trans-prostenoate, ethyl 2-ethyl-9-oxo-13-trans-prostenoate]",–,–,–,–,10 to 25,–,inhibition in vivo at 100 mg/kg (gastric acid secretion [9]; 100 mg./kg. intraduodenal): 42%; inhibition in vivo at 10 mg/kg (gastric acid secretion [12]; [13]): 56%; inhibition in vivo at 10 mg/kg (gastric acid secretion [12]; [14]): 66%; inhibition in vivo at 10 mg/kg (gastric acid secretion [12]; [15]): 48%; inhibition in vivo at 10 mg/kg (gastric acid secretion [12]; [16]): 49%
"O=C(O)CCCCCCC1C(O)CCC1C=CCCCCl (stereo not drawn) [9-hydroxy-20-chloro-17,18,19-trinor-13-trans-prostenoic acid]",2,250,–,250,–,62,ED50 [4]: > 10 mg/kg; ED50 [6]: > 10 mg/kg; MIC [7]: 250 µg/mL; ED50 [8]: 17.9 mg/kg
CCCCCCC=CC1CCC(C)(O)C1CCCCCCC(=O)O (stereo not drawn) [9-Hydroxy-9-methyl-13-trans-prostenoic acid],–,–,–,–,2 to 5,–,ED50 [4]: 1.18 mg/kg; ED50 [6]: 4.32 mg/kg; inhibition in vivo at 10 mg/kg (gastric acid secretion [12]; [15]): 31%; inhibition in vivo at 10 mg/kg (gastric acid secretion [12]; [16]): 16%; ED50 [8]: 0.756 mg/kg
"CCCCCC/C=C/[C@H]1CCC(O)[C@@H]1CCCCC(=O)OCC (stereo partly drawn) [ethyl 9-hydroxy-6,7-dinor-13-trans-prostenoate]",–,–,6,–,–,13,–
O=C(O)CCCCCC[C@H]1C(=O)CC[C@@H]1/C=C/CCCCCCS (relative stereo) [20-mercapto-9-oxo-13-trans-prostenoic acid],–,250,125,250,–,6,MIC [7]: 125 µg/mL
CCCCCCCCCC/C=C/[C@H]1CCC(=O)[C@@H]1CCCCCCC(=O)O (relative stereo) [20-butyl-9-oxo-13-trans-prostenoic acid],–,–,10,250,–,10,ED50 [4]: 2.4 mg/kg; ED50 [6]: > 10 mg/kg; ED50 [8]: > 10 mg/kg
CCCCCCC=CC1CCC(=O)C1CCCCCC(C(=O)O)c1ccccc1 (stereo not drawn) [9-oxo-2-phenyl-13-trans-prostenoic acid],–,–,–,–,5 to 7,–,inhibition in vivo at 10 mg/kg (gastric acid secretion [12]; [15]): 44%; inhibition in vivo at 10 mg/kg (gastric acid secretion [12]; [16]): 26%
"CCCCCC/C=C/[C@@H]1CCC(=O)[C@H]1CCCCOCC(=O)OCC (relative stereo) [ethyl 9-oxo-3-oxa-13-trans-prostenoate, ethyl 3-oxa-9-oxo-13-trans-prostenoate]",–,–,–,–,–,–,"inhibition in vivo at 50 mg/kg (gastric acid secretion [9]): 48%; inhibition in vivo at 100 mg/kg (gastric acid secretion [9]; 100 mg./kg. intraduodenal): 89%; inhibition in vivo at 109 mg/kg (gastric acid secretion [9]; 109 mg./kg., 1 hr. pre-ligation): 59%; inhibition in vivo at 10 mg/kg (gastric acid secretion [12]; [13]): 40%; inhibition in vivo at 10 mg/kg (gastric acid secretion [12]; [14]): 37%"
CCCCCC/C=C/[C@@H]1CCC(=O)[C@H]1CCCCCCC(=O)OCCCC (relative stereo) [n-butyl 9-oxo-13-trans-prostenoate],2,–,250,–,–,250,inhibition in vivo at 50 mg/kg (gastric acid secretion [9]): 20%
"CCOC(=O)CCCCCC[C@H]1C(=O)CC[C@@H]1/C=C/CCCI (relative stereo) [ethyl 20-iodo-9-oxo-17,18,19-trinor-13-trans-prostenoate]",–,250,62,250,–,–,–
CCOCCC/C=C/[C@@H]1CCC(=O)[C@H]1CCCCCCC(=O)O (relative stereo) [18-oxa-9-oxo-13-trans-prostenoic acid],2,250,–,250,15 to 25,–,ED50 [4]: 1.5 mg/kg; ED50 [6]: > 10 mg/kg; inhibition in vivo at 10 mg/kg (gastric acid secretion [12]; [15]): 56%; inhibition in vivo at 10 mg/kg (gastric acid secretion [12]; [16]): 43%; ED50 [8]: 1.92 mg/kg
CCOC(=O)CCCCCC[C@H]1C(=O)CC[C@@H]1/C=C/CCCCCCCl (relative stereo) [ethyl 20-chloro-9-oxo-13-trans-prostenoate],0.5,250,250,250,–,–,MIC (Trichophyton rubrum E 97): 250 µg/mL
"O=C(O)CCCC/C=C/[C@@H]1CCC(=O)[C@H]1CCCCCCC(=O)O (relative stereo) [20-carboxy-9-oxo-18,19-dinor-13-trans-prostenoic acid]",8,–,–,–,35,–,inhibition in vivo at 10 mg/kg (gastric acid secretion [12]; [15]): 25%; inhibition in vivo at 10 mg/kg (gastric acid secretion [12]; [16]): 30%
